Measured values taken from ChEMBL document CHEMBL5252512, “Recent Progress in the Development of HIV-1 Protease Inhibitors for the Treatment of HIV/AIDS” (J Med Chem, 2016).
pEC50: −log10 of the molar value.

Test system: Human immunodeficiency virus 1
Test: Antiviral activity against HIV1 T13572 infected in human MT4 cells expressing LTR and EGFP assessed as inhibition of virus-induced cytopathic effect by fluorescence microscopic analysis
Assay type: functional, organism-based
Details: Human immunodeficiency virus 1, T13572, MT4

| SMILES | pEC50 |
| --- | --- |
| CC(C)CN(C[C@@H](O)[C@H](Cc1ccccc1)NC(=O)O[C@H]1CO[C@H]2OCC[C@H]21)S(=O)(=O)c1ccc(N)cc1 | 6.63 |

Test system: Human immunodeficiency virus 1
Test: Antiviral activity against darunavir-resistant HIV1 10P infected in phytohemagglutinin-activated human PBMC cells assessed as inhibition of virus-induced cytopathic effect measured after 7 days by MTT assay
Assay type: functional, organism-based
Details: Human immunodeficiency virus 1, 10P, 168 h

| SMILES | pEC50 |
| --- | --- |
| CC(C)CN(C[C@@H](O)[C@H](Cc1ccccc1)NC(=O)O[C@H]1CO[C@H]2OCC[C@H]21)S(=O)(=O)c1ccc(N)cc1 | 7.36 |

Test system: not listed separately
Test: Lipophilicity, logP of the compound in Octanol/water by shake-flask method
Assay type: physicochemical
Details: not given

| SMILES | logP |
| --- | --- |
| CC(C)CN(C[C@@H](O)[C@H](Cc1ccccc1)NC(=O)O[C@H]1CO[C@H]2OCC[C@H]21)S(=O)(=O)c1ccc(N)cc1 | -0.63 |

Test system: not listed separately
Test: Lipophilicity, logD of the compound in Octanol/buffer by shake-flask method
Assay type: physicochemical
Details: not given

| SMILES | logD |
| --- | --- |
| CC(C)CN(C[C@@H](O)[C@H](Cc1ccccc1)NC(=O)O[C@H]1CO[C@H]2OCC[C@H]21)S(=O)(=O)c1ccc(N)cc1 | -1.03 |

Test system: Human immunodeficiency virus 1
Test: Ratio of EC50 for antiviral activity against HIV1-T13572 to EC50 for antiviral activity against wild type HIV1 r13205
Assay type: functional
Details: not given

| SMILES | Ratio EC50 |
| --- | --- |
| CC(C)CN(C[C@@H](O)[C@H](Cc1ccccc1)NC(=O)O[C@H]1CO[C@H]2OCC[C@H]21)S(=O)(=O)c1ccc(N)cc1 | 11 |

Test system: Human immunodeficiency virus 1
Test: Ratio of EC50 for antiviral activity against HIV1-T21217 to EC50 for antiviral activity against wild type HIV1 r13205
Assay type: functional
Details: not given

| SMILES | Ratio EC50 |
| --- | --- |
| CC(C)CN(C[C@@H](O)[C@H](Cc1ccccc1)NC(=O)O[C@H]1CO[C@H]2OCC[C@H]21)S(=O)(=O)c1ccc(N)cc1 | 3.8 |

Test system: Human immunodeficiency virus 1
Test: Ratio of EC50 for antiviral activity against darunavir-resistant HIV1 10P to EC50 for antiviral activity against wild type HIV1 ERS104pre
Assay type: functional
Details: not given

| SMILES | Ratio EC50 |
| --- | --- |
| CC(C)CN(C[C@@H](O)[C@H](Cc1ccccc1)NC(=O)O[C@H]1CO[C@H]2OCC[C@H]21)S(=O)(=O)c1ccc(N)cc1 | 11 |

Test system: Human immunodeficiency virus 1
Test: Antiviral activity against HIV1 T21055 infected in human MT4 cells expressing LTR and EGFP assessed as inhibition of virus-induced cytopathic effect by fluorescence microscopic analysis
Assay type: functional, organism-based
Details: Human immunodeficiency virus 1, T21055, MT4

| SMILES | pEC50 |
| --- | --- |
| CC(C)CN(C[C@@H](O)[C@H](Cc1ccccc1)NC(=O)O[C@H]1CO[C@H]2OCC[C@H]21)S(=O)(=O)c1ccc(N)cc1 | 6.91 |

Test system: Human immunodeficiency virus 1
Test: Ratio of EC50 for antiviral activity against HIV1-G to EC50 for antiviral activity against wild type HIV1 ERS104pre
Assay type: functional
Details: not given

| SMILES | Ratio EC50 |
| --- | --- |
| CC(C)CN(C[C@@H](O)[C@H](Cc1ccccc1)NC(=O)O[C@H]1CO[C@H]2OCC[C@H]21)S(=O)(=O)c1ccc(N)cc1 | 2 |

Test system: Human immunodeficiency virus 1
Test: Ratio of EC50 for antiviral activity against HIV1-B to EC50 for antiviral activity against wild type HIV1 ERS104pre
Assay type: functional
Details: not given

| SMILES | Ratio EC50 |
| --- | --- |
| CC(C)CN(C[C@@H](O)[C@H](Cc1ccccc1)NC(=O)O[C@H]1CO[C@H]2OCC[C@H]21)S(=O)(=O)c1ccc(N)cc1 | 7 |

Test system: Human immunodeficiency virus 1
Test: Ratio of EC50 for antiviral activity against HIV1-T13632 to EC50 for antiviral activity against wild type HIV1 r13205
Assay type: functional
Details: not given

| SMILES | Ratio EC50 |
| --- | --- |
| CC(C)CN(C[C@@H](O)[C@H](Cc1ccccc1)NC(=O)O[C@H]1CO[C@H]2OCC[C@H]21)S(=O)(=O)c1ccc(N)cc1 | 28 |

Test system: Human immunodeficiency virus 1
Test: Ratio of EC50 for antiviral activity against HIV1-TM to EC50 for antiviral activity against wild type HIV1 ERS104pre
Assay type: functional
Details: not given

| SMILES | Ratio EC50 |
| --- | --- |
| CC(C)CN(C[C@@H](O)[C@H](Cc1ccccc1)NC(=O)O[C@H]1CO[C@H]2OCC[C@H]21)S(=O)(=O)c1ccc(N)cc1 | 1 |

Test system: Human immunodeficiency virus 1
Test: Antiviral activity against multidrug-resistant HIV1-MM infected in phytohemagglutinin-activated human PBMC cells assessed as inhibition of virus-induced cytopathic effect measured after 7 days by MTT assay
Assay type: functional, organism-based
Details: Human immunodeficiency virus 1, MM, 168 h

| SMILES | pEC50 |
| --- | --- |
| CC(C)CN(C[C@@H](O)[C@H](Cc1ccccc1)NC(=O)O[C@H]1CO[C@H]2OCC[C@H]21)S(=O)(=O)c1ccc(N)cc1 | 8.00 |

Test system: Human immunodeficiency virus 1
Test: Antiviral activity against multidrug-resistant HIV1-TM infected in phytohemagglutinin-activated human PBMC cells assessed as inhibition of virus-induced cytopathic effect measured after 7 days by MTT assay
Assay type: functional, organism-based
Details: Human immunodeficiency virus 1, TM, 168 h

| SMILES | pEC50 |
| --- | --- |
| CC(C)CN(C[C@@H](O)[C@H](Cc1ccccc1)NC(=O)O[C@H]1CO[C@H]2OCC[C@H]21)S(=O)(=O)c1ccc(N)cc1 | 8.37 |

Test system: Human immunodeficiency virus 1
Test: Antiviral activity against darunavir-resistant HIV1 20P infected in phytohemagglutinin-activated human PBMC cells assessed as inhibition of virus-induced cytopathic effect measured after 7 days by MTT assay
Assay type: functional, organism-based
Details: Human immunodeficiency virus 1, 20P, 168 h

| SMILES | pEC50 |
| --- | --- |
| CC(C)CN(C[C@@H](O)[C@H](Cc1ccccc1)NC(=O)O[C@H]1CO[C@H]2OCC[C@H]21)S(=O)(=O)c1ccc(N)cc1 | 6.59 |

Test system: Human immunodeficiency virus 1
Test: Antiviral activity against multidrug-resistant HIV1-B infected in phytohemagglutinin-activated human PBMC cells assessed as inhibition of virus-induced cytopathic effect measured after 7 days by MTT assay
Assay type: functional, organism-based
Details: Human immunodeficiency virus 1, B, 168 h

| SMILES | pEC50 |
| --- | --- |
| CC(C)CN(C[C@@H](O)[C@H](Cc1ccccc1)NC(=O)O[C@H]1CO[C@H]2OCC[C@H]21)S(=O)(=O)c1ccc(N)cc1 | 7.68 |

Test system: Human immunodeficiency virus 1
Test: Antiviral activity against HIV1 T13632 infected in human MT4 cells expressing LTR and EGFP assessed as inhibition of virus-induced cytopathic effect by fluorescence microscopic analysis
Assay type: functional, organism-based
Details: Human immunodeficiency virus 1, T13632, MT4

| SMILES | pEC50 |
| --- | --- |
| CC(C)CN(C[C@@H](O)[C@H](Cc1ccccc1)NC(=O)O[C@H]1CO[C@H]2OCC[C@H]21)S(=O)(=O)c1ccc(N)cc1 | 6.20 |
